From patent US5306712A, “Fungicidal silicon-containing compounds and their agrochemical and medicinal uses” (Sanyo Company, Limited, priority 1991, dated 1994)
In brackets after ≈: the same amount, converted by molar mass.

Legend:
[1] = tested on: Gliocladium virens (Fungus B); assay: Antifungal Activity (paper disc on agar); conditions: 30 μl of 300 ppm acetone solution, 25° C., 5 days
Method: (§4) A fungal disc of about 4 mm diameter was inoculated on an agar medium (2% by weight malt extract, 1% glucose, 0.3% peptone and 2% agar) in a petri dish of diameter 9 cm, by placing the disc on the center of the medium. Paper disc specimens were prepared by impregnating 30 μl of an acetone solution containing 300 ppm of the test compound into the disc (diameter 8 mm, thickness 0.7 mm) and then subjecting it to dry sterilization. The disc specimens were placed in a circle at about 1 cm distance from the fringe of the grown fungus, three days after the inoculation. The specimens were then maintained at 25° C. for 5 days, after which the antifungal activity was determined by visual observation of infection of the specimens by the fungus. The fungi tested were:
Gliocladium virens (Fungus B), and

[2] = tested on: Coriolus versicolor (Fungus D); assay: Wood-preservative Activity (Antidecay); conditions: paper disc, 30 μl of 300 ppm acetone solution, 25° C., 5 days
Method: (§5) A fungal disc of about 4 mm diameter was inoculated on an agar medium (2% by weight malt extract, 1% glucose, 0.3% peptone and 2% agar) in a petri dish of diameter 9 cm, by placing the disc on the center of the medium. Paper disc specimens were prepared by impregnating 30 μl of an acetone solution containing 300 ppm of the test compound into the disc (diameter 8 mm, thickness 0.7 mm) and then subjecting it to dry sterilization. The disc specimens were placed in a circle at about 1 cm distance from the fringe of the grown fungus, three days after the inoculation. The specimens were then maintained at 25° C. for 5 days, after which the antifungal activity was determined by visual observation of infection of the specimens by the fungus.
(§6) The procedure described in Experiment 7 was repeated, except that the fungi tested were Coriolus versicolor (Fungus D) and Tyromyces palustris (Fungus E), which are prescribed in JIS A-9201.

[3] = tested on: Tyromyces palustris (Fungus E); assay: Wood-preservative Activity (Antidecay); conditions: paper disc, 30 μl of 300 ppm acetone solution, 25° C., 5 days
Method: as §5, §6

[4] = tested on: Aspergillus niger (Fungus A); assay: Antifungal Activity (paper disc on agar); conditions: 30 μl of 300 ppm acetone solution, 25° C., 5 days
Method: as §4
Aspergillus niger (Fungus A),

[5] = tested on: Fusarium moliniforme (Fungus C); assay: Antifungal Activity (paper disc on agar); conditions: 30 μl of 300 ppm acetone solution, 25° C., 5 days
Method: as §4
Fusarium moliniforme (Fungus C).
The antifungal activity is indicated by the following ratings:

[6] = tested on: Aspergillus fumigatus; assay: Antifungal Test (MIC, Sabouraud's agar); assay type: cell-based; conditions: 120 h, A. fumiga, 27° C., 5 days
Method: (§1) (i) Preparation of the test solution: The sample to be tested was examined to determine a suitable solvent from those listed below and the method of dissolution, and then the sample was weighed (about 10 mg), dissolved in the selected solvent and diluted with sterilized distilled water to a concentration of 500 μg/ml. Samples of the resulting solution were then subjected to sequential dilution to half the previous concentration to prepare I2 samples in which the concentration of active compound is progressively halved.
(§2) (ii) Test procedure for antifungal activity: Using Nunklon (Registered trademark) 24.hole plates (manufactured by Nunk K. K.), 0.1 ml each of the diluted solutions described above was poured into a hole, 0.9 ml of Sabouraud's agar medium was added to each hole, giving a total of 1 ml in each hole, and mixed to prepare the plate medium.
5 Aspergillus fumigatus (A. fumiga)
(§3) These test strains were inoculated by means of a slant on Sabouraud's agar medium, cultured at 27° C. for 2 days for the yeast strains or for 7 to 14 days for the mold strains, and, kept intact, preserved at 5° C. (subcultured every 1 month). On the day of the test, in the case of the yeast medium, physiological saline to which had previously been added Tween 80 in an amount of 0.1% (w/v) was added to each medium to prepare 10^6 cells/ml suspensions; and, in the case of the mold medium, 4 ml each of the solution above was added to the surface of the agar slant, the surface was rubbed slightly with a stirrer or a platinum loop to suspend the spores, and then, by filtration through a funnel on which 2 sterilized gauzes were placed one upon another, 10^6 cells/ml suspensions were prepared. Using an Eppendorf pipette, 0.1 ml each of these suspension preparations was inoculated and cultivated. The culture was conducted at 27° C. for 2 days for the three strains of yeast, for 5 days for molds 4 , 5 and 6, and for 7 days for molds 7 and 8 to determine minimal inhibitory concentrations of the test samples.

[7] = tested on: Microsporum gypseum; assay: Antifungal Test (MIC, Sabouraud's agar); assay type: cell-based; conditions: Nannizzia gypsea, 120 h
Method: as §1, §2
6 Microsporum gypseum (M. gypseu)
as §3

[8] = tested on: Candida albicans 427; assay: Antifungal Test (MIC, Sabouraud's agar); assay type: cell-based; conditions: Candida albicans, 427, 48 h
[9] = tested on: Mucor mucedo; assay: Antifungal Test (MIC, Sabouraud's agar); assay type: cell-based; conditions: 120 h
[10] = tested on: Trichophyton rubrum Sc.; assay: Antifungal Test (MIC, Sabouraud's agar); assay type: cell-based; conditions: 168 h
[11] = tested on: Trichophyton mentagrophytes Sc.; assay: Antifungal Test (MIC, Sabouraud's agar); assay type: cell-based; conditions: 168 h, T. mentag, 27° C., 7 days
Method: as §1, §2
7 Trichophyton mentagrophytes Sc. (T. mentag)
as §3

[12] = tested on: Candida Albicans Sc.; assay: Antifungal Test (MIC, Sabouraud's agar); assay type: cell-based; conditions: 48 h, C. albica, 27° C., 2 days
Method: as §1, §2
1 Candida Albicans Sc. (C. albica)
as §3

[13] = tested on: Cryptococcus neoformans 58063; assay: Antifungal Test (MIC, Sabouraud's agar); assay type: cell-based; conditions: Cryptococcus neoformans, 58063, 48 h; C. neofor; 27° C., 2 days
Method: as §1, §2
3 Cryptococcus neoformans 58063 (C. neofor)
as §3

SMILES | antifungal activity, Fungus B [1] | wood-preservative (antidecay) activity, Fungus D [2] | wood-preservative (antidecay) activity, Fungus E [3] | antifungal activity, Fungus A [4] | antifungal activity, Fungus C [5] | MIC [6] | MIC [7] | MIC [8] | MIC [9] | MIC [10] | MIC [11] | MIC [12] | MIC [13]
C[Si](C)(C)CC(O)(Cn1cncn1)c1ccc(Cl)cc1 (centres unmarked) [Compound 1-83, Adduct of 2-(4-chlorophenyl)-1-(1H-1,2,4-triazol-1-yl)-3-trimethylsilyl-2-propanol with saccharin] | + | + | + | - | + |  |  |  |  |  |  |  | 
C[Si](C)(C)CC(O)(Cn1cncn1)c1ccc(Cl)cc1F (centres unmarked) [Compound 1-14, 2-(4-Chloro-2-fluorophenyl)-1-(1H-1,2,4-triazol-1-yl)-3-trimethylsilyl-2-propanol] | + | + | + | + | + |  |  |  |  |  |  |  | 
C[Si](C)(C)CC(O)(Cn1ccnc1)c1ccc(Cl)cc1Cl (centres unmarked) [Compound 1-49, 2-(2,4-Dichlorophenyl)-1-(1H-1,3-imidazol-1-yl)-3-trimethylsilyl-2-propanol] | - | + | - | - | - |  |  |  |  |  |  |  | 
C[Si](C)(C)CC(O)(Cn1cncn1)c1ccc(C(F)(F)F)cc1 (centres unmarked) [Compound 1-6, 1-(1H-1,2,4-Triazol-1-yl)-2-(4-trifluoromethylphenyl)-3-trimethylsilyl-2-propanol] | - | + | + | + | + |  |  |  |  |  |  |  | 
C[Si](C)(C)CC(O)(Cn1cncn1)c1cc(Cl)c(Cl)cc1Cl (centres unmarked) [Compound 1-65, 1-(1H-1,2,4-Triazol-1-yl)-2-(2,4,5-trichlorophenyl)-3-trimethylsilyl-2-propanol] | - | - | - | - | + |  |  |  |  |  |  |  | 
C[Si](C)(C)CC(O)(Cn1cncn1)c1ccc(F)cc1 (centres unmarked) [Compound 1-78, Adduct of 2-(4-fluorophenyl)-1-(1H1,2,4-triazol-1-yl)-3-trimethylsilyl-2-propanol with saccharin] | + | + | + | - | + |  |  |  |  |  |  |  | 
C[Si](C)(C)CC(O)(Cn1cncn1)c1ccc(Cl)c(Cl)c1 (centres unmarked) [Compound 1-29, 2-(3,4-Dichlorophenyl)-1-(1H-1,2,4-triazol-1-yl)-3-trimethylsilyl-2-propanol] | - | - | - | - | + |  |  |  |  |  |  |  | 
Cc1ccc(C(O)(Cn2cncn2)C[Si](C)(C)C)cc1 (centres unmarked) [Compound 1-5, 2-(4-Methylphenyl)-1-(1H-1,2,4-triazol-1-yl)-3-trimethylsilyl-2-propanol] | + | + | + | + | + |  |  |  |  |  |  |  | 
C[Si](C)(C)CC(O)(Cn1cncn1)c1ccc(Br)cc1 (centres unmarked) [Compound 1-4, 2-(4-Bromophenyl)-1-(1H-1,2,4-triazol-1-yl)-3-trimethylsilyl-2-propanol] | + | + | + | + | + |  |  |  |  |  |  |  | 
C[Si](C)(C)CC(O)(Cn1cncn1)c1ccccc1 (centres unmarked) [Compound 1-1, 2-Phenyl-1-(1H-1,2,4-triazol-1-yl)-3-trimethylsilyl-2-propanol] | - | + | + | + | + |  |  |  |  |  |  |  | 
C[Si](C)(C)CC(O)(Cn1cncn1)c1ccc(Cl)cc1Cl (centres unmarked) [Compound 1-11, 2-(2,4-Dichlorophenyl)-1-(1H-1,2,4-triazol-1-yl)-3-trimethysilyl-2-propanol] | + | + | + | + | + |  |  |  |  |  |  |  | 
CC[Si](C)(C)CC(O)(Cn1cncn1)c1ccc(F)cc1 (centres unmarked) [Compound 1-70, 3-Dimethylethylsilyl-2-(4-fluorophenyl)-1-(1H-1,2,4-triazol-1-yl)-2-propanol] | + | + | + | - | + |  |  |  |  |  |  |  | 
C[Si](C)(C)CC(O)(Cn1cncn1)c1ccc(F)cc1 (centres unmarked) [Compound 1-3, 2-(4-Fluorophenyl)-1-(1H-1,2,4-triazol-1-yl)-3-trimethylsilyl-2-propanol] |  |  |  | + |  | > 50 µg/mL | > 50 µg/mL | > 50 µg/mL | > 50 µg/mL | 25 µg/mL (≈ 85.2 µM) | 25 µg/mL (≈ 85.2 µM) | > 50 µg/mL | > 50 µg/mL
C[Si](C)(C)CC(O)(Cn1cncn1)c1ccc(Cl)cc1 (centres unmarked) [Compound 1-2, 2-(4-Chlorophenyl)-1-(1H-1,2,4-triazol-1-yl)-3-trimethylsilyl-2-propanol] | + | + | + | + | + | > 50 µg/mL | > 50 µg/mL | > 50 µg/mL | > 50 µg/mL | 3.1 µg/mL (≈ 10 µM) | 3.1 µg/mL (≈ 10 µM) | > 50 µg/mL | 12.5 µg/mL (≈ 40.3 µM)
C[Si](C)(C)CC(O)(Cn1cncn1)c1ccccc1F (centres unmarked) [Compound 1-17, 2-(2-Fluorophenyl)-1-(1H-1,2,4-triazol-1-yl)-3-trimethylsilyl-2-propanol] | + | + | + | + | + |  |  |  |  |  |  |  | 
C[Si](C)(C)CC(O)(Cn1ccnc1)c1ccc(F)cc1F (centres unmarked) [Compound 1-50, 2-(2,4-Difluorophenyl)-1-(1H-1,3-imidazol-1-yl)-3-trimethylsilyl-2-propanol] | - | + | - | - | + |  |  |  |  |  |  |  | 
C[Si](C)(CC(O)(Cn1cncn1)c1ccc(F)cc1)c1ccc(Cl)cc1 (centres unmarked) [Compound 1-69, 3-[(4-Chlorophenyl)dimethylsilyl]-2-(4-fluorophenyl)-1-(1H-1,2,4-triazol-1-yl)-2-propanol] | - | + | - | - | + |  |  |  |  |  |  |  | 
C[Si](C)(C)CC(O)(Cn1cncn1)c1ccc(Cl)c(Cl)c1Cl (centres unmarked) [Compound 1-64, 1-(1H-1,2,4-Triazol-1-yl)-2-(2,3,4-trichlorophenyl)-3-trimethylsilyl-2-propanol] | - | - | + | - | - |  |  |  |  |  |  |  | 
C[Si](C)(C)CC(O)(Cn1cncn1)c1ccccc1Cl (centres unmarked) [Compound 1-16, 2-(2-Chlorophenyl)-1-(1H-1,2,4-triazol-1-yl)-3-trimethylsilyl-2-propanol] | + | + | + | + | + |  |  |  |  |  |  |  | 
